{"source": "patent US7879315B2", "about": "“Agent for dissolving dental calculi and dental caries” (Showa Yakuhin Kako Co., Ltd., priority 2002, dated 2011)", "assay": "Dissolution of dental calculus by immersion (weight after treatment)"}
{"compound": "O=C(O)CC(O)(CC(=O)O)C(=O)O", "note": "[citric acid]", "values": [{"measurement": "weight of dental calculus after the treatment", "setting": "1.3 mg calculus immersed 13 minutes in 1 ml of 10% aqueous solution", "value": 0.65, "unit": "mg"}]}
{"compound": "O=C([O-])CN(CCN(CC(=O)[O-])CC(=O)O)CC(=O)O.[Na+].[Na+]", "note": "[disodium edetate]", "values": [{"measurement": "weight of dental calculus after the treatment", "setting": "0.50 mg calculus immersed 44 minutes in 1 ml of 14.3% solution", "value": 0.25, "unit": "mg"}]}
{"compound": "O=C(O)CO", "note": "[glycolic acid]", "values": [{"measurement": "weight of dental calculus after the treatment", "setting": "0.9 mg calculus immersed 9 minutes in 1 ml of 10% aqueous solution", "value": 0.5, "unit": "mg"}]}
{"compound": "O=C(O)CC(O)C(=O)O", "note": "(stereo not shown) [malic acid]", "values": [{"measurement": "weight of dental calculus after the treatment", "setting": "1.2 mg calculus immersed 13 minutes in 1 ml of 10% aqueous solution", "value": 0.6, "unit": "mg"}]}
{"compound": "O=P(O)(O)O", "note": "[phosphoric acid]", "values": [{"measurement": "weight of dental calculus after the treatment", "setting": "1.2 mg calculus immersed 7 minutes and 30 seconds in 1 ml of 10% aqueous solution", "value": 0.6, "unit": "mg"}, {"measurement": "weight of dental calculus after the treatment", "setting": "1.4 mg calculus immersed 8 minutes and 30 seconds in 1 ml of 2% aqueous solution", "value": 0.7, "unit": "mg"}]}
{"compound": "O=P(O)(O)O[C@H]1[C@H](OP(=O)(O)O)[C@@H](OP(=O)(O)O)[C@H](OP(=O)(O)O)[C@@H](OP(=O)(O)O)[C@H]1OP(=O)(O)O", "note": "[phytic acid]", "values": [{"measurement": "weight of dental calculus after the treatment", "setting": "3.0 mg calculus immersed 5 minutes in 1 ml aqueous solution containing 0.5 g phytic acid (15% aqueous solution)", "value": 2.6, "unit": "mg"}, {"measurement": "weight of dental calculus after the treatment", "setting": "3.0 mg calculus immersed 10 minutes in 1 ml aqueous solution containing 0.5 g phytic acid (15% aqueous solution)", "value": 2.1, "unit": "mg"}]}
{"compound": "O=P(O)(O)OP(=O)(O)O", "note": "[pyrophosphoric acid]", "values": [{"measurement": "weight of dental calculus after the treatment", "setting": "2.2 mg calculus immersed 7 minutes in 1 ml of 10% aqueous solution", "value": 1.1, "unit": "mg"}]}
{"compound": "polyphosphoric acid", "values": [{"measurement": "weight of dental calculus after the treatment", "setting": "1.5 mg calculus immersed 7 minutes and 30 seconds in 1 ml of 10% aqueous solution", "value": 0.7, "unit": "mg"}]}
